The NIST ThermoML archive (doi:10.1021/je020115d)
Numbers after ± are expanded uncertainties.

Details: Liquid

FCF [difluoromethane]
vapor or sublimation pressure (283.19 K): 1111 ± 2 kPa | vapor or sublimation pressure (288.21 K): 1286 ± 2 kPa | vapor or sublimation pressure (293.24 K): 1481 ± 3 kPa | vapor or sublimation pressure (298.26 K): 1697 ± 3 kPa | vapor or sublimation pressure (303.27 K): 1935 ± 3 kPa | vapor or sublimation pressure (308.28 K): 2197 ± 4 kPa | vapor or sublimation pressure (313.3 K): 2485 ± 4 kPa | vapor or sublimation pressure (318.28 K): 2801 ± 5 kPa | vapor or sublimation pressure (323.3 K): 3147 ± 5 kPa | vapor or sublimation pressure (328.31 K): 3526 ± 6 kPa | vapor or sublimation pressure (343.26 K): 4892 ± 8 kPa

CCC [propane]
vapor or sublimation pressure (277.17 K): 536 ± 1 kPa | vapor or sublimation pressure (283.22 K): 638 ± 2 kPa | vapor or sublimation pressure (288.26 K): 734 ± 2 kPa | vapor or sublimation pressure (293.27 K): 838 ± 2 kPa | vapor or sublimation pressure (298.3 K): 955 ± 2 kPa | vapor or sublimation pressure (302.27 K): 1055 ± 2 kPa | vapor or sublimation pressure (308.8 K): 1236 ± 2 kPa | vapor or sublimation pressure (311.8 K): 1326 ± 2 kPa | vapor or sublimation pressure (313.24 K): 1370 ± 2 kPa | vapor or sublimation pressure (318.22 K): 1537 ± 3 kPa | vapor or sublimation pressure (323.22 K): 1716 ± 3 kPa | vapor or sublimation pressure (328.26 K): 1911 ± 3 kPa | vapor or sublimation pressure (333.29 K): 2120 ± 3 kPa | vapor or sublimation pressure (338.31 K): 2346 ± 4 kPa | vapor or sublimation pressure (343.26 K): 2591 ± 4 kPa | vapor or sublimation pressure (348.31 K): 2852 ± 5 kPa | vapor or sublimation pressure (353.41 K): 3134 ± 5 kPa
